In US12252524B2, “GIP/GLP1 co-agonist compounds” (Eli Lilly and Company, priority 2018, dated 2025):
Numbered stars: 1 amine (or outer) side, 2 acyl side, 3 side chain; on linkers, the order of the positions; unused ones are H or OH. Square brackets hold non-standard residues; d marks the D form. Side chains are listed from the residue outwards. Peptide text beside a SMILES is read from it. * marks the point of attachment. C20 diacid = O=C(O)CCCCCCCCCCCCCCCCCCC(=O)*; C18 diacid = O=C(O)CCCCCCCCCCCCCCCCC(=O)*; γGlu = O=C(O)[C@H](CCC(=O)[*:2])N[*:1]; Desaminohistidyl = O=C(CCc1c[nH]cn1)*; Desaminotyrosyl = O=C(CCc1ccc(O)cc1)*; αMeP = C[C@@]1(C(=O)O)CCCN1; AEEA = NCCOCCOCC(=O)O; Aib = CC(C)(N)C(=O)O

Legend:
[1] = target: human GLP-1 receptor (GLP-1R) (Homo sapiens, UniProt P43220); assay: cAMP pharmacological functional assay in presence of casein, hGLP-1R; type: cell-based; conditions: HEK293 cells expressing hGLP-1R, 0.1% Casein, geometric mean; read-out: hGLP1R cAMP Rel EC50 nM (SEM, n)
[2] = target: T1, gastric inhibitory peptide receptor (GIPR) (Homo sapiens, UniProt P48546); assay: cAMP pharmacological functional assay in presence of casein, hGIPR; type: cell-based; conditions: HEK293 cells expressing hGIPR, 0.1% Casein, geometric mean; read-out: hGIPR cAMP Rel EC50 nM (SEM, n)
T1 sequence (P48546 22-466): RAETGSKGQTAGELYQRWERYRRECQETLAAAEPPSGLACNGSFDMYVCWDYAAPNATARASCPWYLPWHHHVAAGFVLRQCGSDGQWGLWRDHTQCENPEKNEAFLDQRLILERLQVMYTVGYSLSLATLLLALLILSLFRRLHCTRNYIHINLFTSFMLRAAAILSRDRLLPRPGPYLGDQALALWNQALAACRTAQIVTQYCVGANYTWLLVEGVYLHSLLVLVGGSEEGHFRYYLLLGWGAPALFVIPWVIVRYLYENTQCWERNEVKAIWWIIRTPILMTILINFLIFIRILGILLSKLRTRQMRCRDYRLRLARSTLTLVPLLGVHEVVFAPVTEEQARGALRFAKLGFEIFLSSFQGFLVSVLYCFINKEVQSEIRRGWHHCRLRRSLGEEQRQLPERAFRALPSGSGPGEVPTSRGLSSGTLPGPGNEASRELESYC

human GLP-1 receptor (GLP-1R), sequence (P43220 24-463): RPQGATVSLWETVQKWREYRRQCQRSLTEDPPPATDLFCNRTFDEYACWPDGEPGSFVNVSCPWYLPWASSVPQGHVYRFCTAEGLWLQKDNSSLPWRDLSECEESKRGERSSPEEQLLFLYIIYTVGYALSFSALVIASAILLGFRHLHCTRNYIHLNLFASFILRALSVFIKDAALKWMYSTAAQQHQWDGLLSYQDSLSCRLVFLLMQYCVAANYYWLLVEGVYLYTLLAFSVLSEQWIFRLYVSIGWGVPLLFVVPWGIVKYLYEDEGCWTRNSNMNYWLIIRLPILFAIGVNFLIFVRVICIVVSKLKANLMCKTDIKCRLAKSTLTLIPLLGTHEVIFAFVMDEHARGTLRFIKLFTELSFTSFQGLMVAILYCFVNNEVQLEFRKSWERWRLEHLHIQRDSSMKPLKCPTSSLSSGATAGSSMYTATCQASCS

Row | Compound | EC50 [1] [nM] | EC50 [2] [nM]
1 | CC[C@H](C)[C@H](NC(=O)[C@H](CC(C)C)NC(=O)[C@H](Cc1ccc(O)cc1)NC(=O)[C@H](CCC(=O)O)NC(=O)[C@@H](NC(=O)[C@H](Cc1ccccc1)NC(=O)[C@H](C)NC(=O)[C@H](CCC(N)=O)NC(=O)[C@H](CCC(N)=O)NC(=O)[C@H](C)NC(=O)[C@H](CCCCNC(=O)COCCOCCNC(=O)COCCOCCNC(=O)CC[C@H](NC(=O)CCCCCCCCCCCCCCCCCCC(=O)O)C(=O)O)NC(=O)[C@H](CCCNC(=N)N)NC(=O)[C@H](CC(=O)O)NC(=O)[C@H](CC(C)C)NC(=O)[C@H](CC(C)C)NC(=O)[C@@H](NC(=O)[C@H](CO)NC(=O)[C@H](Cc1ccc(O)cc1)NC(=O)[C@H](CC(=O)O)NC(=O)[C@H](CO)NC(=O)[C@@H](NC(=O)[C@H](Cc1ccccc1)NC(=O)[C@@H](NC(=O)CNC(=O)[C@H](CCC(=O)O)NC(=O)[C@]1(C)CCCN1C(=O)[C@@H](N)Cc1ccc(O)cc1)[C@@H](C)O)[C@@H](C)O)[C@@H](C)CC)[C@@H](C)CC)C(=O)N[C@@H](CCC(=O)O)C(=O)NCC(=O)NCC(=O)N1CCC[C@H]1C(=O)N[C@@H](CO)C(=O)N[C@@H](CO)C(=O)NCC(=O)N[C@@H](C)C(=O)N1CCC[C@H]1C(=O)N1CCC[C@H]1C(=O)N1CCC[C@H]1C(=O)N[C@@H](CO)C(N)=O [Example 195] (H-Y[αMeP]EGTFTSDYSILLDRK([AEEA-AEEA-γGlu-C20 diacid])AQQAFIEYLIEGGPSSGAPPPS-NH2) | 0.0966 | 0.193
2 | CC[C@H](C)[C@H](NC(=O)[C@H](CC(C)C)NC(=O)[C@H](Cc1ccc(O)cc1)NC(=O)[C@H](CCC(=O)O)NC(=O)[C@@H](NC(=O)[C@H](Cc1ccccc1)NC(=O)[C@H](C)NC(=O)[C@H](Cc1c[nH]cn1)NC(=O)[C@H](CCC(N)=O)NC(=O)[C@H](C)NC(=O)[C@H](CCCCNC(=O)COCCOCCNC(=O)COCCOCCNC(=O)CC[C@H](NC(=O)CCCCCCCCCCCCCCCCCCC(=O)O)C(=O)O)NC(=O)[C@H](CCCNC(=N)N)NC(=O)[C@H](CC(=O)O)NC(=O)[C@H](CC(C)C)NC(=O)[C@H](CC(C)C)NC(=O)[C@@H](NC(=O)[C@H](CO)NC(=O)[C@H](Cc1ccc(O)cc1)NC(=O)[C@H](CC(=O)O)NC(=O)[C@H](CO)NC(=O)[C@@H](NC(=O)[C@H](Cc1ccccc1)NC(=O)[C@@H](NC(=O)CNC(=O)[C@H](CCC(=O)O)NC(=O)[C@]1(C)CCCN1C(=O)[C@@H](N)Cc1ccc(O)cc1)[C@@H](C)O)[C@@H](C)O)[C@@H](C)CC)[C@@H](C)CC)C(=O)N[C@@H](CCC(=O)O)C(=O)NCC(=O)NCC(=O)N1CCC[C@H]1C(=O)N[C@@H](CO)C(=O)N[C@@H](CO)C(=O)NCC(=O)N[C@@H](C)C(=O)N1CCC[C@H]1C(=O)N1CCC[C@H]1C(=O)N1CCC[C@H]1C(=O)N[C@@H](CO)C(N)=O [Example 196] (H-Y[αMeP]EGTFTSDYSILLDRK([AEEA-AEEA-γGlu-C20 diacid])AQHAFIEYLIEGGPSSGAPPPS-NH2) | 0.175 | 0.277
3 | CC[C@H](C)[C@H](NC(=O)[C@H](CC(C)C)NC(=O)[C@H](Cc1ccc(O)cc1)NC(=O)[C@H](CCC(=O)O)NC(=O)[C@@H](NC(=O)[C@H](Cc1ccccc1)NC(=O)[C@H](C)NC(=O)[C@H](CCC(N)=O)NC(=O)[C@H](CCC(N)=O)NC(=O)[C@H](C)NC(=O)[C@H](CCCCNC(=O)COCCOCCNC(=O)COCCOCCNC(=O)CC[C@H](NC(=O)CCCCCCCCCCCCCCCCC(=O)O)C(=O)O)NC(=O)[C@H](CCC(=O)O)NC(=O)[C@H](CC(=O)O)NC(=O)[C@H](CC(C)C)NC(=O)[C@H](CC(C)C)NC(=O)[C@@H](NC(=O)[C@H](CO)NC(=O)[C@H](Cc1ccc(O)cc1)NC(=O)[C@H](CC(=O)O)NC(=O)[C@H](CO)NC(=O)[C@@H](NC(=O)[C@H](Cc1ccccc1)NC(=O)[C@@H](NC(=O)CNC(=O)[C@H](CCC(=O)O)NC(=O)[C@]1(C)CCCN1C(=O)[C@@H](N)Cc1ccc(O)cc1)[C@@H](C)O)[C@@H](C)O)[C@@H](C)CC)[C@@H](C)CC)C(=O)N[C@@H](CCC(=O)O)C(=O)NCC(=O)NCC(=O)N1CCC[C@H]1C(=O)N[C@@H](CO)C(=O)N[C@@H](CO)C(=O)NCC(N)=O [Example 197] (H-Y[αMeP]EGTFTSDYSILLDEK([AEEA-AEEA-γGlu-C18 diacid])AQQAFIEYLIEGGPSSG-NH2) | 0.248 | 0.211
4 | CC[C@H](C)[C@H](NC(=O)[C@H](CC(C)C)NC(=O)[C@H](Cc1ccc(O)cc1)NC(=O)[C@H](CCC(=O)O)NC(=O)[C@@H](NC(=O)[C@H](Cc1ccccc1)NC(=O)[C@H](C)NC(=O)[C@H](CCC(N)=O)NC(=O)[C@H](CCC(N)=O)NC(=O)[C@H](C)NC(=O)[C@H](CCCCNC(=O)COCCOCCNC(=O)COCCOCCNC(=O)CC[C@H](NC(=O)CCCCCCCCCCCCCCCCC(=O)O)C(=O)O)NC(=O)[C@H](CCC(=O)O)NC(=O)[C@H](CC(=O)O)NC(=O)[C@H](CC(C)C)NC(=O)[C@H](CC(C)C)NC(=O)[C@@H](NC(=O)[C@H](CO)NC(=O)[C@H](Cc1ccc(O)cc1)NC(=O)[C@H](CC(=O)O)NC(=O)[C@H](CO)NC(=O)[C@@H](NC(=O)[C@H](Cc1ccccc1)NC(=O)[C@@H](NC(=O)CNC(=O)[C@H](CCC(=O)O)NC(=O)[C@]1(C)CCCN1C(=O)[C@H](N)Cc1ccc(O)cc1)[C@@H](C)O)[C@@H](C)O)[C@@H](C)CC)[C@@H](C)CC)C(=O)N[C@@H](CCC(=O)O)C(=O)NCC(=O)NCC(=O)N1CCC[C@H]1C(=O)N[C@@H](CO)C(=O)N[C@@H](CO)C(=O)NCC(N)=O [Example 198] (H-[dY][αMeP]EGTFTSDYSILLDEK([AEEA-AEEA-γGlu-C18 diacid])AQQAFIEYLIEGGPSSG-NH2) | 0.139 | > 30
5 | CC[C@H](C)[C@H](NC(=O)[C@H](CC(C)C)NC(=O)[C@H](Cc1ccc(O)cc1)NC(=O)[C@H](CCC(=O)O)NC(=O)[C@@H](NC(=O)[C@H](Cc1ccccc1)NC(=O)[C@H](C)NC(=O)[C@H](CCC(N)=O)NC(=O)[C@H](CCC(N)=O)NC(=O)[C@H](C)NC(=O)[C@H](CCCCNC(=O)COCCOCCNC(=O)COCCOCCNC(=O)CC[C@H](NC(=O)CCCCCCCCCCCCCCCCCCC(=O)O)C(=O)O)NC(=O)[C@H](CCC(=O)O)NC(=O)[C@H](CC(=O)O)NC(=O)[C@H](CC(C)C)NC(=O)[C@H](CC(C)C)NC(=O)[C@@H](NC(=O)[C@H](CO)NC(=O)[C@H](Cc1ccc(O)cc1)NC(=O)[C@H](CC(=O)O)NC(=O)[C@H](CO)NC(=O)[C@@H](NC(=O)[C@H](Cc1ccccc1)NC(=O)[C@@H](NC(=O)CNC(=O)[C@H](CCC(=O)O)NC(=O)C(C)(C)NC(=O)CCc1ccc(O)cc1)[C@@H](C)O)[C@@H](C)O)[C@@H](C)CC)[C@@H](C)CC)C(=O)N[C@@H](CCC(=O)O)C(=O)NCC(=O)NCC(=O)N1CCC[C@H]1C(=O)N[C@@H](CO)C(=O)N[C@@H](CO)C(=O)NCC(=O)N[C@@H](C)C(=O)N1CCC[C@H]1C(=O)N1CCC[C@H]1C(=O)N1CCC[C@H]1C(=O)N[C@@H](CO)C(N)=O [Example 199] (Desaminotyrosyl-[Aib]EGTFTSDYSILLDEK([AEEA-AEEA-γGlu-C20 diacid])AQQAFIEYLIEGGPSSGAPPPS-NH2) | 0.0422 | > 30
6 | CC[C@H](C)[C@H](NC(=O)[C@H](CC(C)C)NC(=O)[C@H](Cc1ccc(O)cc1)NC(=O)[C@H](CCC(=O)O)NC(=O)[C@@H](NC(=O)[C@H](Cc1ccccc1)NC(=O)[C@H](C)NC(=O)[C@H](CCC(N)=O)NC(=O)[C@H](CCC(N)=O)NC(=O)[C@H](C)NC(=O)[C@H](CCCCNC(=O)COCCOCCNC(=O)COCCOCCNC(=O)CC[C@H](NC(=O)CCCCCCCCCCCCCCCCCCC(=O)O)C(=O)O)NC(=O)[C@H](CCC(=O)O)NC(=O)[C@H](CC(=O)O)NC(=O)[C@H](CC(C)C)NC(=O)[C@H](CC(C)C)NC(=O)[C@@H](NC(=O)[C@H](CO)NC(=O)[C@H](Cc1ccc(O)cc1)NC(=O)[C@H](CC(=O)O)NC(=O)[C@H](CO)NC(=O)[C@@H](NC(=O)[C@H](Cc1ccccc1)NC(=O)[C@@H](NC(=O)CNC(=O)[C@H](CCC(=O)O)NC(=O)[C@]1(C)CCCN1C(=O)CCc1c[nH]cn1)[C@@H](C)O)[C@@H](C)O)[C@@H](C)CC)[C@@H](C)CC)C(=O)N[C@@H](CCC(=O)O)C(=O)NCC(=O)NCC(=O)N1CCC[C@H]1C(=O)N[C@@H](CO)C(=O)N[C@@H](CO)C(=O)NCC(=O)N[C@@H](C)C(=O)N1CCC[C@H]1C(=O)N1CCC[C@H]1C(=O)N1CCC[C@H]1C(=O)N[C@@H](CO)C(N)=O [Example 201] (Desaminohistidyl-[αMeP]EGTFTSDYSILLDEK([AEEA-AEEA-γGlu-C20 diacid])AQQAFIEYLIEGGPSSGAPPPS-NH2) | 0.0385 | > 30
